Data from patent publication EP4692059A1, “CATIONIC LIPID HAVING DISULFIDE BOND” (Tohoku University, priority 2023, dated 2024).

Assays:
liver = experiment: In vivo gene expression, luciferase luminescence in the liver after tail vein administration (Experimental Example 4); details: BALB/c mouse, mRNA 0.05 mg/kg
Experimental: LNP encapsulating mRNA that expresses luciferase (cationic lipid:DOPC:Chol:DMG-PEG2k = 52.5:7.5:40:1.5 (molar ratio)) was prepared by the method described in [Experimental Example 2], 1.
The prepared each mRNA-encapsulating LNP dispersion was administered from the tail vein of BALB/c mouse (male, 5-week-old). The dose of mRNA was set to 0.05 mg per 1 kg body weight of the mouse, and the dose of the mRNA-encapsulating LNP dispersion was set to 10 µL per 1 g body weight of the mouse. After 4.5 hr from the administration of the mRNA-encapsulating LNP dispersion, a PBS solution of D-luciferin potassium was administered into the abdominal cavity of the mouse. The dose of D-luciferin potassium was set to 3 mg per mouse, and the dose of the PBS solution of D-luciferin potassium was set to 200 µL per mouse. After 15 min from the administration of the PBS solution of D-luciferin potassium, the mouse was euthanized, and the liver was isolated. The luminescence in the liver was quantified using an in vivo imaging system (IVIS) with an exposure of 10 sec. The amount of luminescence in the liver was quantified by image analysis using Live Imaging software attached to IVIS. The amount of luminescence (photons/sec) was calculated from the acquired image and used as an index of gene expression activity. The cationic lipids used, the luminescence intensity in the liver, and the relative luminescence intensity (= luminescence intensity in the liver when cationic lipid of Example was used/luminescence intensity in the liver when cationic lipid of Comparative Example was used) are shown in Table 7-1 to Table 7-3. "E+0a" (a: integer) indicated in Table 7-1 to Table 7-3 means "10^a". For example, "3.94E+09" means "3.94×10^9". […]

mouse red blood cells [1] = experiment: Hemolysis activity (membrane fusion ability) at pH 7.4 and 5.5 (Experimental Example 5); type: cell-based, ICR mice; details: physiological pH (7.4); final lipid concentration 100 µM; Fig. 1
Experimental: LNPs encapsulating mRNA that expresses luciferase (cationic lipid:DOPC:Chol:DMG-PEG2k=52.5:7.5:40:1.5 (molar ratio)) were prepared using the method described in [Experimental Example 2] 1. As cationic lipid, the cationic lipid of Comparative Example, compound 9, compound 14, compound 27, compound 33, or compound 42 was used.
(§1) The collected blood was immediately mixed with 1.0 µL of heparin solution (5000 U/5 mL). About 9 mL of PBS was added to the blood to make the total volume 10 mL. The mixture was then mixed by inversion and centrifuged (4°C, 400 g, 10 min). The supernatant containing plasma components was removed using a Pasteur pipette. About 9 mL of PBS was added to the blood cell components to make the total volume 10 mL, and the mixture was centrifuged again. A similar washing procedure was repeated 4 times to obtain mouse red blood cells.
2, 4, 6, 8, and 10 µL of mouse red blood cells were weighed and diluted with PBS containing 1 w/v% Triton-X100. The entire diluted solution was transferred to a clear 96-well plate, and the absorbance at 545 nm was measured using a plate reader. A calibration curve was created using these samples, and the point where the absorbance reached 1 was determined as the amount of blood cells to be used in the hemolysis assay. Empty LNP solution was weighed into an Eppendorf tube and diluted with malic acid-PBS buffer (pH 5.5, pH 7.4), followed by addition of mouse red blood cells. The final lipid concentration was 100 µM at pH 7.4 and 33.3 µM at pH 5.5, and the final volume of the solution was 250 µL. Each tube was shaken at 1900 rpm for 15 min. Each sample was centrifuged under centrifugation conditions (4°C, 400 g, 5 min), and 100 µL of the supernatant was transferred to a clear 96-well plate and the absorbance at 545 nm was measured. Untreated red blood cells were used as the negative control. […] The hemolysis activity of each sample was calculated using the following formula: Hemolysis activity (%) = 100×(absorbance of each sample - absorbance of negative control)/(absorbance of positive control - absorbance of negative control).

[2] = Particle size, PdI and zeta potential of mRNA-encapsulating LNPs by dynamic light scattering (Experimental Example 6); type: physicochemical; details: mRNA-encapsulating LNP
Experimental: An acidic buffer solution (total amount: 1300 µL) of nucleic acid was prepared by weighing 6.5 µg of mRNA solution (0.6 mg/mL) in a 5 mL tube and adding acidic citrate buffer (20 mM, pH 5.0).
An acidic buffer solution of nucleic acid and an ethanol solution of lipid were each weighed in a syringe. […] The obtained concentrate was diluted with TBS to a lipid concentration of 2 mM to give a dispersion containing LNP.
The particle size, PdI (Polydispersity Index), and zeta potential of the mRNA-encapsulating LNP prepared by the method of the above-mentioned 1 were measured by a dynamic light scattering method (Zetasizer Nano; Malvern). […]

mouse red blood cells [3] = experiment: Hemolysis activity (membrane fusion ability) at pH 7.4 and 5.5 (Experimental Example 8); type: cell-based, ICR mice; details: physiological pH (7.4); final lipid concentration 100 µM; Fig. 3
Experimental: LNP encapsulating mRNA that expresses luciferase (cationic lipid:DOPC:Chol:DMG-PEG2k = 52.5:7.5:40:1.5 (molar ratio)) was prepared by the method described in […], 1. As cationic lipid, the cationic lipid of Comparative Example, compound 94, compound 112, compound 162, compound 181, or compound 194 was used.
as §1
2, 4, 6, 8, and 10 µL of mouse red blood cells were weighed and diluted with PBS containing 1 w/v% Triton-X100. The entire diluted solution was transferred to a clear 96-well plate, and the absorbance at 545 nm was measured using a plate reader. A calibration curve was created using these samples, and the point where the absorbance reached 1 was determined as the amount of blood cells to be used in the hemolysis assay. Empty LNP solution was weighed into an Eppendorf tube and diluted with malic acid-PBS buffer (pH 5.5, pH 7.4), followed by addition of mouse red blood cells. The final lipid concentration was 100 µM at pH 7.4 and 33.3 µM at pH 5.5, and the final volume of the solution was 250 µL. Each tube was shaken at 1900 rpm for 15 min. Each sample was centrifuged under centrifugation conditions (4°C, 400 g, 5 min), and 100 µL of the supernatant was transferred to a clear 96-well plate and the absorbance at 545 nm was measured. Untreated red blood cells were used as the negative control. 1 w/v% Triton-X was used as the positive control. The hemolysis activity of each sample was calculated using the following formula: Hemolysis activity (%) = 100×(absorbance of each sample - absorbance of negative control)/(absorbance of positive control - absorbance of negative control).

HeLa cells = experiment: In vitro gene expression in HeLa cells (luciferase mRNA-encapsulating LNP, cumulative luminescence in 24 hr)
Experimental: LNP encapsulating mRNA that expresses luciferase (cationic lipid:DOPC:Chol:DMG-PEG2k = 50:10:40:1 (molar ratio)) was prepared by the method described in [Experimental Example 2], 1.
HeLa cells, which are human cervical cancer cells, were seeded in a 3.5 cm dish at 5.0×10^4 cells/2 mL/Dish 24 hours before transfection. After 24 hr, the medium was changed to a culture medium (D-MEM) containing 0.1 mM D-luciferin. The prepared mRNA-encapsulating LNP was diluted with PBS to an mRNA concentration of about 1 µg/mL. The diluted mRNA-encapsulating LNP solution (about 200 µL, mRNA: 0.2 µg) was added to a 3.5 cm dish, and set in an incubator luminometer KronosDio. The luminescence intensity of luciferase was measured for 2 min every one hour. The cumulative luciferase luminescence intensity in 24 hr was calculated from the obtained time change of expression. […] In Comparative Example, the cationic lipid described in Table 2 was used.

[4] = cationic lipid:DOPC:Chol=49:7.5:42.5:1, dispersion in TBS, dynamic light scattering (Tables 8-1, 8-2)

SMILES: CCCCCCCC/C=C\CCCCCCCC(=O)Oc1ccc(CC(=O)OCCC2CCN(CCSSCCN3CCC(CCOC(=O)Cc4ccc(OC(=O)CCCCCCC/C=C\CCCCCCCC)cc4)CC3)CC2)cc1 [Comparative Example, reference compound]
- amount of luminescence (photons/sec) in liver (liver; tail vein, 4.5 hr after administration, LNP cationic lipid:DOPC:Chol:DMG-PEG2k = 52.5:7.5:40:1.5, prepared as in Experimental Example 2): 1.52E+09 photons/sec
- relative amount of luminescence (liver; liver luminescence relative to cationic lipid of Comparative Example): 1.00
- hemolysis activity (mouse red blood cells [1]): did not exhibit hemolysis activity
- zeta potential (mV) ([2]; cationic lipid:DOPC:Chol=49:7.5:42.5:1, dispersion in TBS (Tables 8-1, 8-2)): -2.68 mV
- PdI [2, 4]: 0.075
- particle size (nm) [2, 4]: 123.80 nm
- hemolysis activity (mouse red blood cells [3]): none
- cumulative luciferase luminescence intensity (RLU) in 24 hr (HeLa cells; LNP cationic lipid:DOPC:Chol:DMG-PEG2k = 50:10:40:1, mRNA 0.2 µg per dish, E+0a means 10^a): 1.85E+07 RLU
- relative luminescence intensity (HeLa cells; cumulative intensity in 24 hr relative to cationic lipid of Comparative Example): 1.00
